Where a name gives a salt, the structure may show the parent alone.
How the values were obtained:
rhVAP-1 [1] = target: T1, rhVAP-1 (Homo sapiens (Human), UniProt Q16853); assay: Inhibition activity of the compounds on the rhVAP-1 enzyme (Amplex Red/HRP fluorescence, benzylamine substrate); assay type: biochemical; details: 30 minutes pre-incubation at 37° C.
Method: 1. Inhibition Activity of the Compounds on the rhVAP-1 Enzyme
Multifunctional microplate reader (MD, FlexStation 3), black bottom-impermeable 96-well plate (Corning), rhVAP-1 (PeproTech)
An appropriate amount of the test compound was dissolved in DMSO to 10 mM and stored. Before the experiment, an appropriate amount of 10 mM test compound mother liquor was diluted to 10 μM solution with DMSO. Then 3-fold gradient dilution with DMSO was performed, and 10 concentration gradients were formed.
An appropriate amount of protein diluent was added to the rhVAP-1 powder to obtain 1 mg/mL of the mother liquor for storage. Before the experiment, the dilution with PBS provided a 4×concentration of the enzyme solution.
An appropriate amount of benzylamine was added to PBS and dissolved to obtain 200 mM of the benzylamine solution. 2 mM Amplex Red mother liquor and 500 U/mL HRP mother liquor were added. The dilution with PBS provided 2×concentration substrate mixed solution.
(§1) First, 10 μL of compound solutions of different concentrations, 25 μL of 4×rhVAP-1 enzyme solution and 15 μL of PBS were added to a 96-well plate, evenly mixed by oscillation, and incubated at 37° C. for 30 minutes. Then 50 μL of 2×substrate mixed solution was added to each well, and immediately the detection was performed with the microplate reader in a condition of an exciting light at 565 nm, an emitting light at 590 nm, the fluorescence intensity for detecting each well of 5 minutes/run, and a total detection time of 25 minutes. The inhibition rate was calculated according to the following formula: V(RFU/min)=(Ft(RFU)−F0(RFU))/(Time(min)) Inhibition rate (%)=100%−Vcmpd(RFU/min)/V max(RFU/min)×100%
(§2) V: the fluorescence change rate; Ft: fluorescence reading at the time point t; F0: fluorescence reading at the time point 0; Time: time period t; Vcmpd: the fluorescence change rate of the test compound; Vmax: the Max well fluorescence change rate.
(§3) The log values of the concentrations were taken as the X-axis and the percent inhibition rates were taken as the Y-axis, and the dose-effect curve was fitted using the log(inhibitor) vs. response-Variable slope of the analytical software GraphPad Prism 5 to obtain the IC50 value of each compound for enzyme activity.

MAO-B = MAO-B (Homo sapiens (Human), UniProt P27338); assay: Selectivity of the compounds for MAO-B enzyme (MAO-Glo); assay type: biochemical; details: 60 minutes pre-incubation at 37° C.
Chain of MAO-B (P27338 whole entry): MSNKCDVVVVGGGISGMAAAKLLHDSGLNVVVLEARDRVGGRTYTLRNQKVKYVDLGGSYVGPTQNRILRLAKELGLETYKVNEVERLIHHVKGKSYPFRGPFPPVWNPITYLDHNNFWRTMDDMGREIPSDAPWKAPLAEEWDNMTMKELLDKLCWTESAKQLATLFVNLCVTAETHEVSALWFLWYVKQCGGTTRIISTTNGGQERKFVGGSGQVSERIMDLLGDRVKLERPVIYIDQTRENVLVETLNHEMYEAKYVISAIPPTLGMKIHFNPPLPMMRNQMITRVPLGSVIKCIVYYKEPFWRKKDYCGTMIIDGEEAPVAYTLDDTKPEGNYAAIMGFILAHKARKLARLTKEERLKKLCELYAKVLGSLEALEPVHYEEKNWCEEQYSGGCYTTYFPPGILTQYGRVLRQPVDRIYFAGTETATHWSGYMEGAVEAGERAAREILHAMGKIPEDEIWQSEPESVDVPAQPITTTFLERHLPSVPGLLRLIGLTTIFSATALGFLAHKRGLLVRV
Method: (§4) 2. Selectivity of the Compounds for MAO-A/B Enzymes
(§5) Microplate reader (Perkin Elmer, Envision), 384 well plates (Perkin Elmer), centrifuge (Eppendorf), MAO-Glo™ (Promega), MAO-A (Active Motif) and MAO-B (Active Motif).
(§6) An appropriate amount of the test compound was dissolved in DMSO to 10 mM and stored. Before the experiment, an appropriate amount of 10 mM test compound mother liquor was diluted to 100 μM solution with DMSO. Then 4-fold gradient dilution with DMSO was performed, and 6 concentration gradients were formed.
(§7) The MAO-A/B mother liquor was diluted to 2×concentration enzyme solution with the assay buffer solution for the MAO-A/B.
(§8) The mother liquor of the MAO-A/B substrate mixed solution was diluted to 2×concentration substrate mixed solution with the assay buffer solution for the MAO-A/B.
(§9) 200 nL of compound solutions of different concentrations or solvent
(§10) and 10 μL of 2×MAO-A/B enzyme solution were added to a 384-well plate, evenly mixed by oscillation, and incubated at 37° C. for 60 minutes. Then 10 μL of 2×substrate mixed solution was added to each well, and immediately the detection was performed with the microplate reader in a condition of an exciting light at 535 nm, an emitting light at 587 nm, the fluorescence intensity for detecting each well of 5 minutes/run, and a total detection time of 25 minutes.
(§11) The inhibition rate was calculated according to the following formula: V(RFU/min)=(Ft(RFU)−F0(RFU))/(Time(min)) Inhibition rate (%)=100%−Vcmpd(RFU/min)/V max(RFU/min)×100%
as §2, §3

[2] = Stability test in human liver microsome; assay type: in vitro ADME; details: human liver microsome 0.5 mg protein/mL, compound 1 μM, β-NADPH
Method: Biological Example 3: Stability Test of the Compounds of the Present Invention in Human Liver Microsome
The composition of the incubation system:
(1) The liver microsome (20 mg protein/mL) was removed from the −80° C. refrigerator, pre-incubated in a 37° C. water bath constant temperature oscillator for 3 minutes, and thawed for use.
(2) A mixed solution of the incubation system (excluding compound and β-NADPH) according to the above “composition of the incubation system” for the test was prepared, and pre-incubated in a 37° C. water bath constant temperature oscillator for 2 minutes.
(3) Control group (excluding β-NADPH): 30 μL of water and 30 μL of compound working solution (concentration: 10 μM) were added to 240 μL of the mixed solution of the incubation system of step (2), and vortexed for 30 seconds to mix well. The total reaction volume was 300 μL. A duplicate sample was prepared. The sample was incubated in a 37° water bath constant temperature oscillator. The timing began and the sampling time points were set at 0 minute and 60 minutes.
(4) Sample group: 70 μL β-NADPH solution (10 mM) and 70 μL compound working solution (concentration: 10 μM) were added to 560 μL of the mixed solution in step (2). The total reaction volume was 700 μL. The resulting mixture was vortexed for 30 seconds to mix well. A duplicate sample was prepared. The sample was incubated in a 37° C. water bath constant temperature oscillator. The timing began and the sampling time points were set at 0 minute, 5 minutes, 10 minutes, 20 minutes, 30 minutes, and 60 minutes after timing.
(5) After vortexing for 3 minutes, the sample was centrifuged at 12000 rpm for 5 minutes.
(6) 150 μL of water was added to 50 μL of the supernatant. The resulting mixture was evenly mixed in vortex, and the sample LC/MS/MS analysis was performed.

MAO-A = MAO-A (Homo sapiens (Human), UniProt P21397); assay: Selectivity of the compounds for MAO-A enzyme (MAO-Glo); assay type: biochemical; details: 60 minutes pre-incubation at 37° C.
Chain of MAO-A (P21397 whole entry): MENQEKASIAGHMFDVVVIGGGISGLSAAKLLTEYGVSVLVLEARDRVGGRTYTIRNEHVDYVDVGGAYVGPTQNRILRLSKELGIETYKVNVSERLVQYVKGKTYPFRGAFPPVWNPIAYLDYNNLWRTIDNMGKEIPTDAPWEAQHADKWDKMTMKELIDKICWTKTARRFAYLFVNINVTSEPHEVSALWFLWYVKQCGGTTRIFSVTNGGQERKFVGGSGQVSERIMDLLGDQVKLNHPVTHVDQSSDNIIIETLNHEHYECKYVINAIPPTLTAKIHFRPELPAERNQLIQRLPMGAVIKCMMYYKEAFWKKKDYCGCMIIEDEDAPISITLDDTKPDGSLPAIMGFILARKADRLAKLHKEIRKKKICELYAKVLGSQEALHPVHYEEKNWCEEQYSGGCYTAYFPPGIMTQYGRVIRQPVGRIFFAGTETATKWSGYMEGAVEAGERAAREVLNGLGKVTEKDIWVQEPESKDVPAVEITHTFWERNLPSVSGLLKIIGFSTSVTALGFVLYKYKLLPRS
Method: as §4, §5, §6, §7, §8, §9, §10, §11, §2, §3

rhVAP-1 [3] = target: T1, rhVAP-1; assay: Time-dependent inhibition assay for the rhVAP-1 enzyme; assay type: biochemical
Method: Biological example 4: Time-dependent inhibition assay for the rhVAP-1 enzyme
After incubation of the test substances at corresponding time intervals according to Table 4, the activity was measured at each time point in the same manner as in the rhVAP-1 enzymatic test method of biological example 1.
as §1, with “Specifically,” for “First,”, “concentrations or solvent,” for “concentrations,”, “0 minutes, 3 minutes, 6 minutes, 9 minutes and 12” for “30”, “minutes.” for “minutes. The inhibition rate was calculated according to the following formula: V(RFU/min)=(Ft(RFU)−F0(RFU))/(Time(min)) Inhibition rate (%)=100%−Vcmpd(RFU/min)/V max(RFU/min)×100%”

T1 sequence (Q16853 whole entry): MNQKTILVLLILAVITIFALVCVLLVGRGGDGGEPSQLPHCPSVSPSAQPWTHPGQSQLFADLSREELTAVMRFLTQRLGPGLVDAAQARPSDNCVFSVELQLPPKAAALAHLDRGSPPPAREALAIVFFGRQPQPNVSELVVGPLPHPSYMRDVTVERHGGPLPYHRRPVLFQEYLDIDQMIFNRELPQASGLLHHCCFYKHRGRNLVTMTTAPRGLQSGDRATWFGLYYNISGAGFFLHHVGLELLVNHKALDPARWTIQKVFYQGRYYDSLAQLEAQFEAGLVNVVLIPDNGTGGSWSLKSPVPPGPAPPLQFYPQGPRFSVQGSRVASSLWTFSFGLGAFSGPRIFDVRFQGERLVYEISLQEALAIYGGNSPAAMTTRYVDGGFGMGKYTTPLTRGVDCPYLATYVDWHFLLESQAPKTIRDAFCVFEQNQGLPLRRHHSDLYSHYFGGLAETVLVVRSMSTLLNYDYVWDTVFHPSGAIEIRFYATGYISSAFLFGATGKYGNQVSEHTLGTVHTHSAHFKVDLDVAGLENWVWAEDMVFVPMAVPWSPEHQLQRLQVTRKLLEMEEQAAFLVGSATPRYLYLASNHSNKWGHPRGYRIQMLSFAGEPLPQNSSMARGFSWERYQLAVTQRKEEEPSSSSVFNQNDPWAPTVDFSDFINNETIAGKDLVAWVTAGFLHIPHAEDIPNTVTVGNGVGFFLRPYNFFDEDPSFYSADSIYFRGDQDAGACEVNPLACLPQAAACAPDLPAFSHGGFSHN

| SMILES | IC50 (rhVAP-1 [1]) [nM] | IC50 (MAO-B) [µM] | ClH [2] | further results |
| --- | --- | --- | --- | --- |
| NC/C(=C/F)COc1ccc2c(n1)CN(C1CC1)C2=O [Trifluoroacetate of Compound 25, (Z)-2-((2-(aminomethyl)-3-fluoroallyl)oxy)-6-cyclopropyl-6,7-dihydro-5H-pyrrolo[3,4-b]pyridin-5-one] | 25 | 13 | – | – |
| NC/C(=C/F)COc1ccc2c(c1)CCN(C1CC1)C2=O [Hydrochloride of Compound 34, (Z)-6-((2-(aminomethyl)-3-fluoroallyl)oxy)-2-cyclopropyl-3,4-dihydroisoquinolin-1(2H)-one] | 6 | 8.4 | – | – |
| NC/C(=C/F)COc1ccc2c(c1)C(=O)N(C1CC1)C2=O [Hydrochloride of Compound 31, (Z)-5-((2-(aminomethyl)-3-fluoroallyl)oxy)-2-cyclopropylisoindolin-1,3-dione] | 11 | – | – | – |
| CCN(CC)C(=O)c1ccc(OC/C(=C/F)CN)cn1.Cl [Hydrochloride of Compound 19, (E)-5-((2-(aminomethyl)-3-fluoroallyl)oxy)-N,N-diethylpicolinamide] | 21 | – | →0 mL/min/kg | – |
| NC/C(=C/F)COc1ccc2c(n1)CCN(C1CC1)C2=O [Compound 23, (Z)-2-((2-(aminomethyl)-3-fluoroallyl)oxy)-6-cyclopropyl-7,8-dihydro-1,6-naphthyridin-5(6H)-one] | – | – | 4.63 mL/min/kg | – |
| NC/C(=C\F)COc1ccc2c(c1)C(=O)N(C1CC1)C2=O [Hydrochloride of Compound 30, (E)-5-((2-(aminomethyl)-3-fluoroallyl)oxy)-2-cyclopropyl isoindolin-1,3-dione] | 32 | 5.8 | – | – |
| NC/C(=C/F)COc1ccc2c(n1)CCN(C1CC1)C2=O [Trifluoroacetate of Compound 23, (Z)-2-((2-(aminomethyl)-3-fluoroallyl)oxy)-6-cyclopropyl-7,8-dihydro-1,6-naphthyridin-5(6H)-one] | 14 | 19 | – | IC50 (MAO-A): 10 µM; IC50 (rhVAP-1 [3]; pre-incubation 0 minute): 206 nM; IC50 (rhVAP-1 [3]; pre-incubation 3 minutes): 18.6 nM; IC50 (rhVAP-1 [3]; pre-incubation 6 minutes): 15.2 nM; IC50 (rhVAP-1 [3]; pre-incubation 9 minutes): 14 nM; IC50 (rhVAP-1 [3]; pre-incubation 12 minutes): 12.5 nM |
| NC/C(=C\F)COc1cnc2c(c1)CCNC2=O [Hydrochloride of Compound 8, (E)-3-((2-(aminomethyl)-3-fluoroallyl)oxy)-6,7-dihydro-1,7-naphthyridin-8(5H)-one] | 30 | > 100 | – | – |
| NC/C(=C\F)COc1ccc2c(n1)CCN(C1CC1)C2=O [Trifluoroacetate of Compound 26, (E)-2-((2-(aminomethyl)-3-fluoroallyl)oxy)-6-cyclopropyl-7,8-dihydro-1,6-naphthyridin-5(6H)-one] | 51 | 8.8 | – | – |

Now from value to molecule, other results behind:

| IC50 (rhVAP-1 [1]) [nM] | IC50 (MAO-B) [µM] | ClH [2] | SMILES | further results |
| --- | --- | --- | --- | --- |
| 11 | 6.6 | – | NC/C(=C/F)COc1cc2c(cn1)C(=O)N(C1CC1)CC2 [Trifluoroacetate of Compound 32, (Z)-6-((2-(aminomethyl)-3-fluoroallyl)oxy)-2-cyclopropyl-3,4-dihydro-2,7-naphthyridine-1(2H)-one] | – |
| – | – | 2.94 mL/min/kg | NC/C(=C\F)COc1cc2c(cn1)C(=O)N(C1CC1)CC2 [Compound 22, (E)-6-((2-(aminomethyl)-3-fluoroallyl)oxy)-2-cyclopropyl-3,4-dihydro-2,7-naphthyridin-1(2H)-one] | – |
| 24 | 37 | →0 mL/min/kg | NC/C(=C\F)COc1ccc2c(n1)CN(C1CC1)C2=O [Trifluoroacetate of Compound 24, (E)-2-((2-(aminomethyl)-3-fluoroallyl)oxy)-6-cyclopropyl-6,7-dihydro-5H-pyrrolo[3,4-b]pyridin-5-one] | – |
| 21 | 14 | 4.95 mL/min/kg | Cl.NC/C(=C\F)COc1cc2c(cn1)C(=O)N(C1CC1)C2 [Hydrochloride of Compound 21, (E)-6-((2-(aminomethyl)-3-fluoroallyl)oxy)-2-cyclopropyl-1,2-dihydro-3H-pyrrolo-[3,4-c]pyridin-3-one] | IC50 (MAO-A): > 100 µM |
| 14 | 20 | →0 mL/min/kg | Cl.NC/C(=C/F)COc1cnc2c(c1)CN(C1CC1)C2=O [Hydrochloride of Compound 28, (Z)-3-((2-(aminomethyl)-3-fluoroallyl)oxy)-6-cyclopropyl-5,6-dihydro-7H-pyrrolo[3,4-b]pyridin-7-one] | – |
| 16 | 38 | – | NC/C(=C\F)COc1cnc2c(c1)CN(C1CC1)C2=O [Hydrochloride of Compound 27, (E)-3-((2-(aminomethyl)-3-fluoroallyl)oxy)-6-cyclopropyl-5,6-dihydro-7H-pyrrolo[3,4-b]pyridin-7-one] | – |
| 14 | 8.6 | – | NC/C(=C/F)COc1cc2c(cn1)C(=O)N(C1CC1)C2 [Trifluoroacetate of Compound 33, (Z)-6-((2-(aminomethyl)-3-fluoroallyl)oxy)-2-cyclopropyl-1,2-dihydro-3H-pyrrolo-[3,4-c]pyridin-3-one] | – |
| 24 | 2.8 | 0.18 mL/min/kg | Cl.NC/C(=C\F)COc1ccc2c(c1)CN(C1CC1)C2=O [Hydrochloride of Compound 16, (E)-5-((2-(aminomethyl)-3-fluoroallyl)oxy)-2-cyclopropyl isoindolin-1-one] | – |
| 25 | 4.1 | 4.18 mL/min/kg | Cl.NC/C(=C/F)COc1ccc2c(c1)CN(C1CC1)C2=O [Hydrochloride of Compound 29, (Z)-5-((2-(aminomethyl)-3-fluoroallyl)oxy)-2-cyclopropylisoindolin-1-one] | – |

Source: patent US11649233B2, “Halo-allylamine SSAO/VAP-1 inhibitor and use thereof” (Nanjing Transthera Biosciences Co., Ltd., priority 2017, dated 2023)
